Test results as given in article PMC4784480 (FEBS letters, 2010).

Molecular target: T1, Type II NADH dehydrogenase (Plasmodium falciparum, UniProt Q8I302)
T1 sequence (Q8I302 24-533): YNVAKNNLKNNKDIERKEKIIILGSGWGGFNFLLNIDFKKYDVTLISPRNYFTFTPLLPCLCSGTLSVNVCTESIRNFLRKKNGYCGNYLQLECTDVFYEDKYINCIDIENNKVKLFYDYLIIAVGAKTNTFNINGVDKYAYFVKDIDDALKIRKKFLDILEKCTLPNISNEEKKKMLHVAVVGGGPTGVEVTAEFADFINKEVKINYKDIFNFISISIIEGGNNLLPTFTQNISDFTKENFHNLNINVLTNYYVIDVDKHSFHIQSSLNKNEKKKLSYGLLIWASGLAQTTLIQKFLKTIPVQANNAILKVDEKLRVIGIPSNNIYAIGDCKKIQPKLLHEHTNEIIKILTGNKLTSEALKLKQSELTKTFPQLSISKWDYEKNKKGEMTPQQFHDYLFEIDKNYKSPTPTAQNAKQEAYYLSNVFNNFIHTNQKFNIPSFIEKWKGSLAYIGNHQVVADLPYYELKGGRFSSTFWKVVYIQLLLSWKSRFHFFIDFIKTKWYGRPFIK
Assay: NADH oxidation at […] nm, parasite cell-free extract
Assay type: biochemical
Conditions: concentration not given

Compound | NADH oxidation at 340 nm, parasite cell-free extract (inhibitor of MQ-4-dependent NADH oxidation) | NADH oxidation at 340 nm, parasite cell-free extract (electron acceptor with NADH)
c1ccc2c(c1)[I+]c1ccccc1-2 [DPI, diphenylene iodonium chloride] | sensitive to diphenylene iodonium chloride (DPI), a classical Type II NADH:dehydrogenase inhibitor | 
CCCCCCCCCCC1=C(C)C(=O)C(OC)=C(OC)C1=O [decylubiquinone] |  | Without MQ-4 or decylubiquinone addition no NADH oxidation was observed
